Here are results for 5 compounds from patent publication US8551999B2, “Heterocyclic compound and pharmaceutical composition thereof” (Otsuka Pharmaceutical Co., Ltd., priority 2007, dated 2013).

pIC50: −log10 of the molar value.

For data set [1], the system named is STAT3. The data set can be described thus: Inhibitory effect on IL-6-induced STAT3 phosphorylation in human myeloma cells (in vitro). The data set is classed as cell-based. Particulars: U266B1 human myeloma cells, IL-6 1 ng/mL, pSTAT3 (Y705) by flow cytometry. How it is done:
The inhibitory effect of the test compound on phosphorylation of STAT3 (signal transducer and activator of transcription-3) in human myeloma cells ([…]) induced by interleukin-6 (IL-6) was examined using the modified method of Tochizawa S. et al. (J Immunol Methods. 2006 Jun. 30; 313(1-2): 29-37). In the study, U266B1 cells were seeded in an RPMI 1640 medium containing 10% fetal bovine serum (FBS) in a 12-well plate and incubated at 37° C. for 2 hours in the presence of carbon dioxide. After incubation, IL-6 was added to yield the concentration of 1 ng/mL and the cells were incubated at 37° C. for 15 minutes in the presence of 5% carbon dioxide. After fixation of the cells by the addition of a buffer containing formaldehyde (Lyse/Fix Buffer, BD Biosciences) at room temperature for 10 minutes, the suspension was centrifuged to remove the supernatant and the cells were treated with ice-cold methanol for 10 minutes to improve the permeability of the cell membrane. The cells were centrifuged to remove methanol and washed twice with Dulbecco's phosphate buffered saline (D-PBS) containing 2% fetal bovine serum (FBS). A fluorescence-labeled anti-phosphorylated STAT3 (pSTAT3) antibody (Alexa Fluor 488-labeled anti-pSTAT3 (Y705) antibody, BD Biosciences) was added for staining in an ice bath for 30 minutes.
The cells were washed once with 2% FBS-containing D-PBS and suspended in 2% FBS-containing D-PBS, and the fluorescence intensity was determined using a flow cytometer (FACS Sort, BD Biosciences). The ratio of fluorescence intensity in the test group to the control group (T/C) was determined from the difference in the geometric mean of pSTAT3 fluorescence intensity between the test compound group of each concentration and the non-stimulated control group according to the following equation by defining the difference in the geometric mean of pSTAT3 fluorescence intensity between the IL-6 induced control and the non-stimulated control as 100%. T/C(%)=([…] of pSTAT3 fluorescence intensity in the cells treated with the test compound—geometric mean of pSTAT3 fluorescence intensity in non-stimulated control)/(geometric mean of fluorescence intensity of IL-6-induced pSTAT3 in the control−geometric mean of pSTAT3 fluorescence intensity in non-stimulated control)×100.
The concentration of the test compound inhibiting phosphorylation of STATS at 50% (IC50; concentration of the test compound corresponding to 50% T/C(%)) was determined using T/C(%) values at the respective concentrations and defined as the index for the inhibitory activity.

Data set [2] relates to LI90 cells, a human hepatic stellate cell line. Nature of the data set: Inhibitory effect on collagen synthesis (in vitro). Type of data set: cell-based. Particulars: in the presence of recombinant human TGF-β1, 3H-proline labelled collagen in supernatant. An outline of the steps:
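Cells serum-starved 3 days in 0.1% FBS MEM, then exposed to test compound with […] recombinant human TGF-β1 for 16 h at 37 °C. Collagen labelled with ³H-proline for 24 h in medium with 0.25 mM ascorbate; acid-soluble supernatant radioactivity measured and IC50 (nM) derived versus untreated cells.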

In data set [3] the test system is Human hepatic cancer cells (HuH-7). The data set can be described thus: Antitumor effect on hepatic cancer cells, HuH-7 (in vivo). Particulars: SCID mice bearing HuH-7 tumor, 10 mg/kg/day orally, once daily, 9 consecutive days; ratio of relative tumor volume treatment/control. How it is done: Human hepatic cancer cells (HuH-7) were transplanted in SCID mice (6 females/group) and the inhibitory effect of the invention on their growth was examined. In the study, 0.2 mL of a cell suspension adjusted to contain 2.5×10^7 cells/mL was injected subcutaneously in the right axilla to prepare tumor bearing mice. When the tumor diameter became 5 mm or more, the animals were allocated to groups based on the tumor volume. The test compound was administered orally as a suspension in 5% gum arabic, once daily, for 9 consecutive days. The control group received 5% gum arabic. Tumor volumes were measured on the following day of the last administration. The relative tumor volume was determined by calculating the ratio of the tumor volume on the following day of the last administration to that at group allocation. The ratio of the relative tumor volume in the treatment group to that in the control group (T/C %) was calculated as the index for the effect. Relative tumor volume=Tumor volume on the following day of the last administration/Tumor volume at group allocation. T/C %=(Mean relative tumor volume in the treatment group/Mean relative tumor volume in the control group)×100.

For data set [4], the system named is human hepatic cancer cells (HuH-7). The data set can be described thus: Antiproliferative effect on cancer cells (in vitro), sulforhodamine B method, HuH-7. The data set is classed as cell-based. Particulars: HuH-7 cells, 5 days incubation with test compound. How it is done:
(§1) Growth inhibition of human hepatic cancer cells (HuH-7) was determined by the sulforhodamine B method based on the method of Skehan P. et al. (J Natl Cancer Inst. 1990 Jul. 4; 82(13): 1107-12). In the study, HuH-7 cells were seeded on DMEM medium containing 10% fetal bovine serum in a 96-well microplate. After 24-hour incubation at 37° C. in the presence of 5% carbon dioxide, the test compound was added and the cells were incubated for another 5 days. After incubation, a trichloroacetic acid solution was added to yield the final concentration of 10% and the cells were left to stand at 4° C. for 1 hour to fix. Then, the cells were washed with water to remove the medium and trichloroacetic acid and dried in the air. The dried cells were stored at 4° C. until they were stained with sulforhodamine B. To each well, 1% acetic acid solution containing 0.4% sulforhodamine B was added and left to stand for 20 to 30 minutes at room temperature. After discarding the supernatant, each well was washed with 1% acetic acid solution, and 10 mM Tris ([…]) solution was added while stirring to elute the dye taken into the cells. Then, the optical density was determined at the measurement wavelength of 492 nm and the reference wavelength of 690 nm, and the difference was calculated. The cell growth activity in each well was defined as the value determined by subtracting the OD in the control well not containing cells (the difference in absorbance between 492 nm and 690 nm) from that in the test well.
(§2) The 50% inhibitory concentration (IC50 (nM)) of the test compound was determined by comparing the cell growth activity in the well containing the test compound with that of the control not containing the test compound.

The subject of data set [5] is human chronic myelocytic leukemia cells (KU812). Nature of the data set: Antiproliferative effect on cancer cells (in vitro), WST-8 assay, KU812. Type of data set: cell-based. Particulars: 5 days incubation with test compound. How it is done: The growth inhibition on human chronic myelocytic leukemia cells (KU812) was determined by a WST-8 assay according to the method of Singh A K, et al. (Cancer Lett. 1996 Oct. 1; 107(1): 109-15.). In this method, KU812 cells were seeded in RPMI 1640 medium containing 10% fetal bovine serum in a 96-well microplate and incubated at 37° C. for 24 hours in the presence of 5% carbon dioxide. Then, the test compound was added and the cells were incubated for another 5 days. After incubation, 15 μL of 5 mM WST-8 (2-(2-methoxy-4-nitrophenyl)-3-(4-nitrophenyl)-5-(2,4-disulfenyl)-2H-tetrazolium, monosodium salt) was added and the cells were incubated for 2 hours. After the 2-hour incubation, 15 μL of 1% SDS (sodium dodecyl sulfate) was added and the optical density was determined at the measurement wavelength of 450 nm and the reference wavelength of 630 nm, and the difference was calculated. The cell growth activity in each well was defined as the value determined by subtracting the OD in the control well not containing cells (the difference in absorbance between 492 nm and 690 nm) from that in the test well.
as §2

Data set [6] relates to human pancreatic cancer cells (HPAC). Nature of the data set: Antiproliferative effect on cancer cells (in vitro), sulforhodamine B method, HPAC. Type of data set: cell-based. Particulars: 5 days incubation with test compound. How it is done: as §1, §2
The growth inhibition on human pancreatic cancer cells (HPAC) was also determined by the above method using HPAC instead of HuH-7 and RPMI 1640 medium containing 10% fetal bovine serum instead of the DMEM medium containing 10% fetal bovine serum.

As to `CN(C(=O)c1ccc(C(F)(F)F)cc1)c1ccc(Oc2ccc3c(c2)cc(C(=O)N2CCN(Cc4ccc(OC(F)F)cc4)CC2)n3C)nc1.O=C(O)/C=C\C(=O)O` [Example 401, N-(6-{2-[4-(4-Difluoromethoxybenzyl)piperazine-1-carbonyl]-1-methyl-1H-indol-5-yloxy}pyridin-3-yl)-N-methyl-4-trifluoromethyl-benzamide maleate], the melting point is 146 to 147 °C. In data set [1], this compound showed a negative-log IC50 (pIC50) of more than 8.00. Further, the negative-log IC50 (pIC50) in data set [2] is more than 8.00. Besides, in data set [3], the T/C % is given as less than 50%. For the same compound, the negative-log IC50 (pIC50) in data set [4] (Homo sapiens, 120 h) is more than 8.00. The compound further showed a negative-log IC50 (pIC50) in data set [5] (Homo sapiens, 120 h) of more than 8.70. The same compound had a pIC50 in data set [6] (Homo sapiens, 120 h) of more than 7.15.
Turning to `Br.CN(C(=O)c1ccc(C(F)(F)F)cc1)c1ccc(Oc2ccc3cc(C(=O)N4CCN(Cc5ccc(OC(CF)CF)cc5)CC4)n(C)c3c2)nc1` [Example 445, N-[6-(2-{4-[4-(2-Fluoro-1-fluoromethylethoxy)benzyl]piperazine-1-carbonyl}-1-methyl-1H-indol-6-yloxy)pyridin-3-yl]-N-methyl-4-tri-fluoromethylbenzamide hydrobromide], the melting point is 230.8 to 231.4 °C. This compound gave a pIC50 in data set [1] of more than 8.00. In addition, the T/C % in data set [3] is reported as less than 50%.
Take `Br.CN(C(=O)c1ccc(OC(F)(F)F)cc1)c1ccc(Oc2ccc3cc(C(=O)N4CCN(Cc5ccc(OC(F)F)cc5)CC4)n(C)c3c2)nc1` [Example 473, N-(6-{2-[4-(4-Difluoromethoxybenzyl)piperazine-1-carbonyl]-1-methyl-1H-indol-6-yloxy}pyridin-3-yl)-N-methyl-4-trifluoro-methoxybenzamide hydrobromide]: the pIC50 in data set [2] was more than 8.00; in data set [4], more than 8.00; in data set [5] it was more than 8.70; in data set [6], more than 7.15. For the same compound, the T/C % in data set [3] was less than 50%.
`Cc1cc(C(F)(F)F)ccc1C(=O)Nc1ccc(Oc2ccc3cc(C(=O)N4CCN(Cc5ccc(OC(CF)CF)cc5)CC4)n(C)c3c2)nc1.Cl` [Example 493, N-[6-(2-{4-[4-(2-Fluoro-1-fluoromethylethoxy)benzyl]piperazine-1-carbonyl}-1-methyl-1H-indol-6-yloxy)pyridin-3-yl]-2-methyl-4-tri-fluoromethylbenzamide hydrochloride] gave a melting point of 192.5 to 195.4 °C. In data set [1], the pIC50 was more than 8.00. In addition, the T/C % in data set [3] is less than 50%.
With `CC(C)Oc1ccc(CN2CCN(C(=O)c3cc4ccc(Oc5ncc(N(C)C(=O)c6ccc(C(F)(F)F)cc6)cn5)cc4n3C)CC2)cc1.Cl` [Example 521, N-(2-{2-[4-(4-Isopropoxybenzyl)piperazine-1-carbonyl]-1-methyl-1H-indol-6-yloxy}pyrimidin-5-yl)-N-methyl-4-trifluoromethyl-benzamide hydrochloride], the T/C % in data set [3] is less than 50%. The pIC50 was more than 8.00 in data set [4] (Homo sapiens, 120 h); more than 8.70 in data set [5] (Homo sapiens, 120 h); more than 7.15 in data set [6] (Homo sapiens, 120 h).
